Results as given in ChEMBL document CHEMBL1649227, “In vitro antiviral activity of V-073 against polioviruses” (Antimicrob Agents Chemother, 2009).
Values after ≈ are worked out from the molar mass of the structure shown.

What was measured:
[1] = tested on: Enterovirus C; test: Antiviral activity against Poliovirus 10222 serotype PV1 obtained from immunodeficient chronic excretor infected in […] LLC-MK2 cells assessed as inhibition of viral-replication induced cytopathic effect; format: functional, organism-based; conditions: 10222 serotype PV1, LLC-MK2
[2] = tested on: Enterovirus C; test: Antiviral activity against Poliovirus PV1-LSc/2ab serotype PV1 vaccine-derived infected in […] LLC-MK2 cells assessed as inhibition of viral-replication induced cytopathic effect; format: functional, organism-based; conditions: PV1-LSc/2ab serotype PV1, LLC-MK2
[3] = tested on: Enterovirus A71; test: Antiviral activity against Enterovirus serotype 71 infected in african green monkey BGMK cells assessed as inhibition of virus induced cytopathic effect after 18 to 24 hrs; format: functional, organism-based; conditions: Enterovirus A
[4] = tested on: Enterovirus C; test: Antiviral activity against Poliovirus 10227 serotype PV2 obtained from immunodeficient chronic excretor infected in […] LLC-MK2 cells assessed as inhibition of viral-replication induced cytopathic effect; format: functional, organism-based; conditions: 10227 serotype PV2, LLC-MK2
[5] = tested on: Coxsackievirus B3; test: Antiviral activity against Coxsackievirus serotype B3 infected in african green monkey BGMK cells assessed as inhibition of virus induced cytopathic effect after 18 to 24 hrs; format: functional, organism-based; conditions: Enterovirus B
[6] = tested on: Enterovirus C; test: Antiviral activity against Poliovirus 10691 serotype PV1 obtained from circulating vaccine infected in […] LLC-MK2 cells assessed as inhibition of viral-replication induced cytopathic effect; format: functional, organism-based; conditions: 10691 serotype PV1, LLC-MK2
[7] = tested on: Enterovirus C; test: Antiviral activity against Poliovirus 10219 serotype PV2 obtained from circulating vaccine infected in […] LLC-MK2 cells assessed as inhibition of viral-replication induced cytopathic effect; format: functional, organism-based; conditions: 10219 serotype PV2, LLC-MK2
[8] = Solubility of the compound; format: physicochemical
[9] = tested on: Enterovirus C; test: Antiviral activity against Poliovirus 10221 serotype PV2 obtained from immunodeficient chronic excretor infected in […] LLC-MK2 cells assessed as inhibition of viral-replication induced cytopathic effect; format: functional, organism-based; conditions: 10221 serotype PV2, LLC-MK2
[10] = tested on: Coxsackievirus B2; test: Antiviral activity against Coxsackievirus serotype B2 infected in african green monkey BGMK cells assessed as inhibition of virus induced cytopathic effect after 18 to 24 hrs; format: functional, organism-based; conditions: Enterovirus B
[11] = tested on: Human enterovirus 70; test: Antiviral activity against Enterovirus serotype 70 infected in african green monkey BGMK cells assessed as inhibition of virus induced cytopathic effect after 18 to 24 hrs; format: functional, cell-based, enterovirus D70; conditions: Enterovirus D
[12] = tested on: Enterovirus C; test: Antiviral activity against Poliovirus 10242 serotype PV1 obtained from circulating vaccine infected in […] LLC-MK2 cells assessed as inhibition of viral-replication induced cytopathic effect; format: functional, organism-based; conditions: 10242 serotype PV1, LLC-MK2
[13] = tested on: Enterovirus C; test: Antiviral activity against Poliovirus 10223 serotype PV1 obtained from immunodeficient chronic excretor infected in […] LLC-MK2 cells assessed as inhibition of viral-replication induced cytopathic effect; format: functional, organism-based; conditions: 10223 serotype PV1, LLC-MK2
[14] = tested on: Enterovirus C; test: Antiviral activity against Poliovirus 10690 serotype PV1 obtained from circulating vaccine infected in […] LLC-MK2 cells assessed as inhibition of viral-replication induced cytopathic effect; format: functional, organism-based; conditions: 10690 serotype PV1, LLC-MK2
[15] = tested on: enterovirus D68; test: Antiviral activity against Enterovirus serotype 68 infected in african green monkey BGMK cells assessed as inhibition of virus induced cytopathic effect after 18 to 24 hrs; format: functional, organism-based; conditions: Enterovirus D
[16] = tested on: Enterovirus C; test: Antiviral activity against Poliovirus 10228 serotype PV2 obtained from immunodeficient chronic excretor infected in […] LLC-MK2 cells assessed as inhibition of viral-replication induced cytopathic effect; format: functional, organism-based; conditions: 10228 serotype PV2, LLC-MK2
[17] = tested on: Enterovirus C; test: Antiviral activity against Poliovirus 10243 serotype PV2 obtained from immunodeficient chronic excretor infected in […] LLC-MK2 cells assessed as inhibition of viral-replication induced cytopathic effect; format: functional, organism-based; conditions: 10243 serotype PV2, LLC-MK2
[18] = tested on: Enterovirus C; test: Antiviral activity against Poliovirus Brunhilde serotype PV1 infected in […] LLC-MK2 cells assessed as inhibition of viral-replication induced cytopathic effect; format: functional, organism-based
[19] = tested on: Enterovirus C; test: Antiviral activity against Poliovirus 10240 serotype PV1 obtained from circulating vaccine infected in […] LLC-MK2 cells assessed as inhibition of viral-replication induced cytopathic effect; format: functional, organism-based; conditions: 10240 serotype PV1, LLC-MK2
[20] = tested on: Enterovirus C; test: Antiviral activity against Poliovirus 10226 serotype PV2 obtained from immunodeficient chronic excretor infected in […] LLC-MK2 cells assessed as inhibition of viral-replication induced cytopathic effect; format: functional, organism-based; conditions: 10226 serotype PV2, LLC-MK2
[21] = tested on: Coxsackievirus A9; test: Antiviral activity against Coxsackievirus serotype A9 infected in african green monkey BGMK cells assessed as inhibition of virus induced cytopathic effect after 18 to 24 hrs; format: functional, organism-based; conditions: Enterovirus B
[22] = tested on: Enterovirus C; test: Antiviral activity against Poliovirus 10234 serotype PV2 obtained from circulating vaccine infected in […] LLC-MK2 cells assessed as inhibition of viral-replication induced cytopathic effect; format: functional, organism-based; conditions: 10234 serotype PV2, LLC-MK2
[23] = tested on: Enterovirus C; test: Antiviral activity against Poliovirus 10692 serotype PV1 obtained from circulating vaccine infected in […] LLC-MK2 cells assessed as inhibition of viral-replication induced cytopathic effect; format: functional, organism-based; conditions: 10692 serotype PV1, LLC-MK2
[24] = tested on: Enterovirus C; test: Antiviral activity against Poliovirus 10235 serotype PV1 obtained from circulating vaccine infected in […] LLC-MK2 cells assessed as inhibition of viral-replication induced cytopathic effect; format: functional, organism-based; conditions: 10235 serotype PV1, LLC-MK2
[25] = tested on: Enterovirus C; test: Antiviral activity against Poliovirus 10238 serotype PV1 obtained from circulating vaccine infected in […] LLC-MK2 cells assessed as inhibition of viral-replication induced cytopathic effect; format: functional, organism-based; conditions: 10238 serotype PV1, LLC-MK2
[26] = Cytotoxicity against african green monkey BGMK cells after 18 to 24 hrs by MTT assay; format: cell-based; conditions: chlorocebus aethiops
[27] = tested on: Enterovirus C; test: Antiviral activity against Poliovirus 10237 serotype PV1 obtained from circulating vaccine infected in […] LLC-MK2 cells assessed as inhibition of viral-replication induced cytopathic effect; format: functional, organism-based; conditions: 10237 serotype PV1, LLC-MK2
[28] = Selectivity index, ratio of CC50 for human HeLa cells to EC50 for poliovirus; format: toxicity, cell-based; conditions: read-out: Ratio CC50/EC50

## COc1ccc(OCc2ccc(COc3c(Cl)cccc3Cl)cc2)c(Cl)c1
[1]
  EC50: 15 nM
[2]
  EC50: 17 nM
[3]
  MIC90: 1.42 µM (≈ 0.602 µg/mL)
[3]; BGMK
  EC50: 3470 nM
[4]
  EC50: 19 nM
[5]
  EC50: 3790 nM
[6]
  EC50: 18 nM
[7]
  EC50: 23 nM
[8]
  solubility: 14 µM (≈ 5.93 µg/mL)
[9]
  EC50: 27 nM
[10]
  EC50: 3790 nM
[11]
  MIC90: 1.42 µM (≈ 0.602 µg/mL)
[11]; BGMK
  EC50: 3470 nM
[12]
  EC50: 17 nM
[13]
  EC50: 10 nM
[14]
  EC50: 29 nM
[15]
  MIC90: 1.42 µM (≈ 0.602 µg/mL)
[15]; BGMK
  EC50: 3470 nM
[16]
  EC50: 126 nM
[17]
  EC50: 38 nM
[18]
  EC50: 18 nM
[19]
  EC50: 15 nM
[20]
  EC50: 19 nM
[21]
  EC50: 3790 nM
[22]
  EC50: 9 nM
[23]
  EC50: 29 nM
[24]
  EC50: 18 nM
[25]
  EC50: 14 nM
[26]
  Activity: > 50 µg/mL
[27]
  EC50: 11 nM
[28]
  selectivity ratio: 75
